From ChEMBL document CHEMBL1136094, “Novel, potent and selective cyclin D1/CDK4 inhibitors: indolo[6,7-a]pyrrolo[3,4-c]carbazoles” (Bioorg Med Chem Lett, 2003) come the findings set out here.

In assay [1] the target is T1, Cyclin-dependent kinase 4/cyclin D1 (Homo sapiens, UniProt P11802). Put plainly: Inhibitory activity against Cyclin D1-cyclin-dependent kinase 4 in enzymatic assay by measuring phosphorylation of Rb21. The class given is protein-complex assay.
Assay [2] concerns the target cAMP-dependent protein kinase (PKA) (Homo sapiens, UniProt P22694+P17612+P22612). As to the kind of experiment: Inhibitory activity against Protein kinase A (Histone). The class given is protein assay.
The target in assay [3] is Cyclin-dependent kinase 2/cyclin E (Homo sapiens, UniProt P24941). Put plainly: Inhibitory activity against Cyclin E-cyclin-dependent kinase 2 in enzymatic assay by measuring phosphorylation of RbING. The class given is protein-complex assay.
The test system of another assay is NCI-H460. As to the kind of experiment: In vitro antiproliferative activity against human carcinoma cell line H460 (lung). The class given is functional, cell-based.
The next assay addresses CaM kinase II (Homo sapiens, UniProt Q13557+Q13555+Q13554+Q9UQM7). Put plainly: Inhibitory activity against Calcium/calmodulin-dependent protein kinase type II. The class given is protein assay.
Assay [4] addresses T1, Cyclin-dependent kinase 4/cyclin D1. Put plainly: Inhibitory activity against Cyclin D1-cyclin-dependent kinase 4 in enzymatic assay by measuring phosphorylation of RbING. The class given is protein-complex assay.
For another assay, the system named is HCT-116. Put plainly: In vitro antiproliferative activity against human carcinoma cell line HCT116 (colon). The class given is functional, cell-based.

T1 sequence (P11802 whole entry): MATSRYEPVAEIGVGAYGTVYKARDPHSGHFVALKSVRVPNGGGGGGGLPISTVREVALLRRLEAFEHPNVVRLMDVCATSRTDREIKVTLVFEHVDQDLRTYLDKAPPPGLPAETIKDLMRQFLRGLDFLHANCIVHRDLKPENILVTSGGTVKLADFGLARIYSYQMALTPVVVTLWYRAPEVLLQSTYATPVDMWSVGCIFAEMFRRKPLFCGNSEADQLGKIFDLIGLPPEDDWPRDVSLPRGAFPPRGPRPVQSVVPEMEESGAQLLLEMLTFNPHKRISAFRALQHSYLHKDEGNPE
T1 sequence (P24385 whole entry, further chain): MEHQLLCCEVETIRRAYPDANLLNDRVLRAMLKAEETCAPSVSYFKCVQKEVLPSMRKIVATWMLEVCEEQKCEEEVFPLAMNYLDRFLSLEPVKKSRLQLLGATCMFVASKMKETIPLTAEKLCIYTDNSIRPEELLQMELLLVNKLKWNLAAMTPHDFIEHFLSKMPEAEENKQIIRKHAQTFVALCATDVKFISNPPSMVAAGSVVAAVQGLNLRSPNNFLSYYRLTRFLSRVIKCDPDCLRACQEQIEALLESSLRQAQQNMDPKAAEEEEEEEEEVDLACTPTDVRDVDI

One may read the IC50 as the concentration at which inhibition is half-maximal. In the case of `COc1ccc2c3c4c(c5c(ccc6ccn(C)c65)c3n(CCCN3CCN(C)CC3)c2c1)C(=O)NC4=O`, the IC50 in assay [1] is 14 nM; in assay [2], 2930 nM; in assay [3] it was 1230 nM; in the assay on NCI-H460 it was 900 nM; on CaM kinase II, 11600 nM; in assay [4], 95 nM. The same compound returned a concentration for half-maximal inhibition (IC50) in the assay on HCT-116 of 450 nM.
`Cn1ccc2ccc3c4[nH]c5c(CCN6CCC(O)CC6)cccc5c4c4c(c3c21)C(=O)NC4=O`: the IC50 in assay [1] was found to be 8 nM; in assay [2], 2990 nM; in assay [3], 978 nM; with NCI-H460 it was 140 nM; on CaM kinase II it was 46 nM; in assay [4] it was 45 nM. The compound further came in with an IC50 with HCT-116 of 200 nM.
In the case of `CCN(CC)CCCc1cccc2c1[nH]c1c3ccc4ccn(C)c4c3c3c(c21)C(=O)NC3=O`, the IC50 is 24 nM in assay [1]; 14100 nM in assay [2]; 1500 nM in assay [3]; 370 nM in the assay on NCI-H460; 174 nM at CaM kinase II; 34 nM in assay [4]. For the same compound, the 50% inhibitory concentration (IC50) with HCT-116 was found to be 950 nM.
On to `COc1ccc2c3c4c(c5c(ccc6ccn(C)c65)c3n(CCCN3CCOCC3)c2c1)C(=O)NC4=O`, for which the IC50 in assay [1] was 21 nM; in assay [2] it was over 20000 nM; in assay [3] it was 716 nM; in the assay on NCI-H460 it was 1630 nM; on CaM kinase II, over 20000 nM; in assay [4] it was 69 nM. The same compound showed an IC50 in the assay with HCT-116 of 1690 nM.
On to `COc1ccc2c3c4c(c5c(ccc6ccn(C)c65)c3n(CCCN3CCSCC3)c2c1)C(=O)NC4=O`, for which the half-maximal inhibitory concentration (IC50) was 47 nM in assay [1]; over 20000 nM in assay [2]; 1260 nM in assay [3]; 2110 nM in the assay with NCI-H460; over 20000 nM on CaM kinase II; 190 nM in assay [4]. The compound further showed an IC50 with HCT-116 of 2020 nM.
With `Cn1ccc2ccc3c4[nH]c5c(CCN6CCSCC6)cccc5c4c4c(c3c21)C(=O)NC4=O`, the IC50 was 24 nM in assay [1]; over 20000 nM in assay [2]; 1800 nM in assay [3]; 3410 nM in the assay on NCI-H460; 403 nM on CaM kinase II; 82 nM in assay [4]. Further, it took 3410 nM to reach half-maximal inhibition in the assay with HCT-116 (IC50).
Turning to `COc1cccc2c1[nH]c1c3ccc4ccn(C)c4c3c3c(c21)C(=O)NC3=O`, the IC50 in assay [1] is 40 nM; in assay [2], over 20000 nM; in assay [3], over 2000 nM; in the assay on NCI-H460, 2710 nM; in assay [4] it was 62 nM; with HCT-116, 1000 nM.
For `Cn1ccc2ccc3c4[nH]c5c(CCN6CCNCC6)cccc5c4c4c(c3c21)C(=O)NC4=O`, the IC50 in assay [1] is 15 nM; in assay [2] it was 12900 nM; in assay [3] it was 2030 nM; in the assay with NCI-H460, 1110 nM; on CaM kinase II it was 301 nM; in assay [4] it was 49 nM. In the assay with HCT-116, this compound gave a half-inhibitory concentration (IC50) of 1040 nM.
Regarding `Cn1ccc2ccc3c4[nH]c5c(CCCNCCO)cccc5c4c4c(c3c21)C(=O)NC4=O`, the IC50 in assay [1] was determined as 19 nM; in assay [2] it was 8310 nM; in assay [3], 567 nM; in the assay with NCI-H460, 1100 nM; at CaM kinase II, 266 nM; in assay [4], 40 nM. Besides, 770 nM corresponded to half-maximal inhibition in the assay on HCT-116 (IC50).
For `CN1CCN(CCCc2cccc3c2[nH]c2c4ccc5ccn(C)c5c4c4c(c32)C(=O)NC4=O)CC1`, the 50% inhibitory concentration (IC50) in assay [2] was determined as 16600 nM; in assay [3], 1670 nM; in the assay on NCI-H460, 1480 nM; at CaM kinase II, 382 nM; in assay [4] it was 52 nM; in the assay on HCT-116, 1380 nM.
For `Cn1ccc2ccc3c4[nH]c5cc(C(F)(F)F)ccc5c4c4c(c3c21)C(=O)NC4=O`, the IC50 in assay [1] was 9 nM; in assay [2] it was over 20000 nM; in assay [3] it was 225 nM; in the assay on NCI-H460, 3510 nM; in assay [4] it was 76 nM; in the assay on HCT-116, over 10000 nM.
As to `COc1ccc2c3c4c(c5c(ccc6ccn(C)c65)c3n(CCN3CCCCC3)c2c1)C(=O)NC4=O`, the half-maximal inhibitory concentration (IC50) was 33 nM in assay [1]; over 20000 nM in assay [2]; 928 nM in assay [3]; 2470 nM in the assay with NCI-H460; over 20000 nM on CaM kinase II; 135 nM in assay [4]. Further, 3740 nM corresponded to half-maximal inhibition with HCT-116 (IC50).
For the compound `CCOc1ccc2c(c1)[nH]c1c3ccc4ccn(C)c4c3c3c(c21)C(=O)NC3=O`, the IC50 was 10 nM in assay [1]; over 20000 nM in assay [2]; 324 nM in assay [3]; 3200 nM in the assay with NCI-H460; 44 nM in assay [4]; 2350 nM in the assay on HCT-116.
Turning to `Cn1ccc2ccc3c4[nH]c5c(CCCO)cccc5c4c4c(c3c21)C(=O)NC4=O`, the IC50 in assay [1] was 40 nM; in assay [2] it was over 20000 nM; in assay [3] it was 558 nM; in the assay with NCI-H460 it was 2350 nM; in assay [4] it was 168 nM; in the assay on HCT-116 it was 3020 nM.
Turning to `COc1ccc2c(c1)[nH]c1c2c2c(c3c1c(C)cc1ccn(C)c13)C(=O)NC2=O`, the IC50 in assay [1] is 7 nM; in assay [2], over 20000 nM; in assay [3], 57 nM; in the assay on NCI-H460 it was 1300 nM; in assay [4], 42 nM; with HCT-116, 1430 nM.
For `Cn1ccc2ccc3c4[nH]c5c(CCN6CCC[C@H]6CO)cccc5c4c4c(c3c21)C(=O)NC4=O`, the half-inhibitory concentration (IC50) in assay [1] is 23 nM; in assay [2] it was 4580 nM; in assay [3] it was 685 nM; in the assay with NCI-H460, 210 nM; on CaM kinase II, 90 nM; in assay [4] it was 39 nM. Moreover, inhibition with HCT-116 was half-maximal at 420 nM (IC50).
For the compound `COC(=O)C1CCN(CCc2cccc3c2[nH]c2c4ccc5ccn(C)c5c4c4c(c32)C(=O)NC4=O)CC1`, the IC50 is 13 nM in assay [1]; over 20000 nM in assay [2]; 972 nM in assay [3]; over 10000 nM with NCI-H460; 81 nM at CaM kinase II; 47 nM in assay [4]. In addition, the IC50 with HCT-116 is over 10000 nM.
In the case of `Cn1ccc2ccc3c4[nH]c5cc(F)ccc5c4c4c(c3c21)C(=O)NC4=O`, the half-maximal inhibitory concentration (IC50) was 11 nM in assay [1]; over 20000 nM in assay [2]; 9 nM in assay [3]; over 10000 nM in the assay on NCI-H460; 38 nM in assay [4]; over 10000 nM in the assay with HCT-116.
On to `Cn1ccc2cc(F)c3c4[nH]c5ccccc5c4c4c(c3c21)C(=O)NC4=O`, for which the IC50 in assay [1] is 16 nM; in assay [2], over 20000 nM; in assay [3], 86 nM; with NCI-H460, 2900 nM; in assay [4] it was 67 nM; in the assay on HCT-116, 3490 nM.
As for `O=C1NC(=O)c2c1c1c(ccc3cc[nH]c31)c1c2c2ccccc2n1CCCO`, the half-inhibitory concentration (IC50) in assay [1] was 12 nM; in assay [2], over 20000 nM; in assay [3], 8 nM; with NCI-H460, 1070 nM; in assay [4], 66 nM; in the assay with HCT-116, 750 nM.
With `Cc1cc2ccn(C)c2c2c3c(c4c5ccccc5n(C)c4c12)C(=O)NC3=O`, the IC50 is 45 nM in assay [1]; 3900 nM in assay [2]; 267 nM in assay [3]; over 10000 nM in the assay with NCI-H460; 92 nM in assay [4]; 4700 nM in the assay on HCT-116.
As to `Cn1ccc2ccc3c4[nH]c5c(CCNCCO)cccc5c4c4c(c3c21)C(=O)NC4=O`, the IC50 came out at 10 nM in assay [1]; 6120 nM in assay [2]; 265 nM in assay [3]; 330 nM in the assay with NCI-H460; 95 nM on CaM kinase II; 33 nM in assay [4]. This compound showed an IC50 in the assay with HCT-116 of 170 nM.
Consider `Cn1ccc2ccc3c4[nH]c5ccc(F)cc5c4c4c(c3c21)C(=O)NC4=O`, for which the 50% inhibitory concentration (IC50) in assay [1] is 39 nM; in assay [2], over 20000 nM; in assay [3] it was over 200 nM; in the assay with NCI-H460 it was over 10000 nM; in assay [4], 84 nM; with HCT-116, over 10000 nM.
As to `COc1ccc2c3c4c(c5c(ccc6ccn(C)c65)c3n(CCCN3CCC(O)CC3)c2c1)C(=O)NC4=O`, the half-inhibitory concentration (IC50) in assay [1] is 4 nM; in assay [2], 2810 nM; in assay [3], 2100 nM; in the assay on NCI-H460, 1130 nM; on CaM kinase II, 3130 nM; in assay [4], 48 nM. In addition, the IC50 in the assay on HCT-116 worked out at 1260 nM.
`Cn1ccc2ccc3c4[nH]c5c(CCCN6CCOCC6)cccc5c4c4c(c3c21)C(=O)NC4=O`: the half-maximal inhibitory concentration (IC50) in assay [1] was 43 nM; in assay [2], over 20000 nM; in assay [3], 1330 nM; in the assay with NCI-H460, 1680 nM; at CaM kinase II, 516 nM; in assay [4], 56 nM. The compound further came in with an IC50 in the assay with HCT-116 of 2820 nM.
Consider `Cn1ccc2ccc3c4[nH]c5cc(Br)ccc5c4c4c(c3c21)C(=O)NC4=O`, for which the concentration for half-maximal inhibition (IC50) was under 13 nM in assay [1]; over 20000 nM in assay [2]; 75 nM in assay [3]; 720 nM in the assay with NCI-H460; 38 nM in assay [4]; 1080 nM in the assay with HCT-116.
For the compound `COc1ccc2c3c4c(c5c(ccc6ccn(C)c65)c3n(CCN3CCC[C@H]3CO)c2c1)C(=O)NC4=O`, the half-inhibitory concentration (IC50) in assay [1] was 23 nM; in assay [2] it was over 20000 nM; in assay [3] it was 942 nM; with NCI-H460, 3800 nM; at CaM kinase II it was 6120 nM; in assay [4] it was 84 nM. The compound also showed an IC50 in the assay on HCT-116 of 2690 nM.
As for `Cc1cc2ccn(C)c2c2c3c(c4c5ccccc5[nH]c4c12)C(=O)NC3=O`, the 50% inhibitory concentration (IC50) in assay [1] was 2 nM; in assay [2], over 20000 nM; in assay [3], 70 nM; in the assay with NCI-H460 it was 2260 nM; in assay [4] it was 28 nM; in the assay on HCT-116 it was 1980 nM.
